PMC11084959 (International Journal of Molecular Sciences, 2024)
“Also recorded” adds a separate entry of the source. Where a SMILES comes first, the peptide text is derived from it. Bridges are numbered along the chain shown (N, C = ends). Where no end group is shown, it is not given here.

How the values were obtained:
[1] = target: T1, recombinant hCaV3.2 channels (Homo sapiens, UniProt O95180); test: QPatch whole-cell patch-clamp, CaV3.2; type: cell-based
T1 construct: expressed in transfected cells
Procedure: (§1) The human embryonic kidney 293 (HEK 293) cell lines (from Emmanuel Bourinet, Montpellier, France) stably expressing CaV3.2 or CaV3.3 [41] were cultured under 5% carbon dioxide at 37 °C in Dulbecco’s Modified Eagle Medium (DMEM) Glutamax (Gibco, Life Technologies, Carlsbad, CA, USA) supplemented with 10% (v/v) fetal bovine serum (FBS), 100 U/mL penicillin, 100 μg/mL streptomycin (Gibco, Life Technologies), and 750 μg/mL geneticin (G418) (Gibco, Life Technologies). The Chinese Hamster Ovary (CHO) cell lines (Emmanuel Bourinet, Montpellier, France) expressing CaV3.1 [42] were cultured under 5% carbon dioxide at 37 °C in Alpha Minimum Essential Media (MEM) Glutamax (Gibco, Life Technologies), supplemented with 10% (v/v) fetal bovine serum (FBS) and 300 μg/mL geneticin (G418) (Gibco, Life Technologies). The human neuroblastoma SH-SY5Y cells (Victor Diaz, Goettingen, Germany) were cultured under 5% carbon dioxide at 37 °C in RPMI 1640 antibiotic-free medium (Invitrogen, Carlsbad, CA, USA), supplemented with 15% FBS and 2 mM GlutaMAX™ (Invitrogen). D-PBS (Gibco, Life Technologies) was used to wash the cells, and 0.25% Trypsin-EDTA (Gibco, Life Technologies) was used to detach the cells from the flask surface. They were split in a ratio of 1:5 (ideally 1000 cells/cm^2) when they reached 70–80% confluence (every 2–3 days).
(§2) Whole-cell patch-clamp experiments were performed on an automated electrophysiology platform QPatch 16 X (Sophion Bioscience A/S, Ballerup, Denmark) in a single-hole configuration using 16-channel planar patch chip QPlates (Sophion Bioscience A/S). The extracellular recording solution contained, in mM: TEACl 157, MgCl2 0.5, CaCl2 5, and HEPES 10; pH 7.4 adjusted with TEAOH; and osmolarity 320 mOsm. The intracellular pipette solution contained, in mM: CsF 140, EGTA 1, HEPES 10, and NaCl 10; pH 7.2 adjusted with CsOH; and osmolarity 325 mOsm. […]
(§3) The data were plotted and analyzed using GraphPad Prism v8.0 (GraphPad Software Inc., San Diego, CA, USA). […]

[2] = target: T2, recombinant hCaV3.3 channels (Homo sapiens, UniProt Q9P0X4); test: QPatch whole-cell patch-clamp, CaV3.3; type: cell-based
T2 construct: expressed in transfected cells
Procedure: as §1, §2, §3

[3] = system: recombinant hCaV3.1 channel; test: QPatch whole-cell patch-clamp, CaV3.1; type: cell-based; conditions: human CaV3.1 in CHO cells
Procedure: as §1, with “They were split in a ratio of 1:5 (ideally 1000 cells/cm^2) when they reached 70–80% confluence (every 2–3 days).” left out
as §3

[4] = system: human HVA N-type CaV2.2; test: N-type CaV2.2 FLIPR assay in SH-SY5Y cells; type: cell-based; conditions: 0.781–200 µM, 10 µM nifedipine, agonist 90 mM KCl + 5 mM CaCl2, n = 4
Procedure: as §1, with “D-PBS (Gibco, Life Technologies) was used to wash the cells, and 0.25% Trypsin-EDTA (Gibco, Life Technologies) was used to detach the cells from the flask surface. They were split in a ratio of 1:5 (ideally 1000 cells/cm^2) when they reached 70–80% confluence (every 2–3 days).” left out
(§4) SH-SY5Y cells were seeded into 384-well black wall clear bottom plates at a density of 15,000 cells per well, resulting in 90–95% confluence after 24 h. […] The fluorescence readings were recorded and converted as described previously, and an agonist containing 90 mM KCl + 5 mM CaCl2 was used in the second addition.

[5] = system: L-type CaVs; test: L-type CaV FLIPR assay in SH-SY5Y cells; type: cell-based, human; conditions: 0.781–200 µM, 1 µM CVID, agonist 90 mM KCl + 5 mM CaCl2, n = 4
Procedure: as §1, with “D-PBS (Gibco, Life Technologies) was used to wash the cells, and 0.25% Trypsin-EDTA (Gibco, Life Technologies) was used to detach the cells from the flask surface. They were split in a ratio of 1:5 (ideally 1000 cells/cm^2) when they reached 70–80% confluence (every 2–3 days).” left out
as §4

[6] = system: Lucilia cuprina (Australian sheep blowflies); test: Insecticidal activity against sheep blowflies (injection); type: in vivo; conditions: 1, 4 and 10 μg per fly injected; 10 flies per group; paralytic effects at 0.5, 1, 2 and 24 h
[7] = system: T-type CaVs (CaV3.1 and CaV3.2); conditions: ref [9],[10]; cited from earlier work
Source text: Scorpions are venomous arachnids of the order Scorpiones, with around 2798 currently (December 2023) described species distributed on all continents except Antarctica. Scorpion venoms are complex mixtures of peptides, enzymes, mucoproteins, amino acids (aa), nucleotides, lipids, amines, heterocyclic components, inorganic salts, and probably other yet to be described substances. They are rich sources of neurotoxic polypeptides that recognize and bind to ion channels of excitable and non-excitable cells and modulate their functional properties. Based on the specific binding propertie ...

T2 sequence (Q9P0X4 whole entry): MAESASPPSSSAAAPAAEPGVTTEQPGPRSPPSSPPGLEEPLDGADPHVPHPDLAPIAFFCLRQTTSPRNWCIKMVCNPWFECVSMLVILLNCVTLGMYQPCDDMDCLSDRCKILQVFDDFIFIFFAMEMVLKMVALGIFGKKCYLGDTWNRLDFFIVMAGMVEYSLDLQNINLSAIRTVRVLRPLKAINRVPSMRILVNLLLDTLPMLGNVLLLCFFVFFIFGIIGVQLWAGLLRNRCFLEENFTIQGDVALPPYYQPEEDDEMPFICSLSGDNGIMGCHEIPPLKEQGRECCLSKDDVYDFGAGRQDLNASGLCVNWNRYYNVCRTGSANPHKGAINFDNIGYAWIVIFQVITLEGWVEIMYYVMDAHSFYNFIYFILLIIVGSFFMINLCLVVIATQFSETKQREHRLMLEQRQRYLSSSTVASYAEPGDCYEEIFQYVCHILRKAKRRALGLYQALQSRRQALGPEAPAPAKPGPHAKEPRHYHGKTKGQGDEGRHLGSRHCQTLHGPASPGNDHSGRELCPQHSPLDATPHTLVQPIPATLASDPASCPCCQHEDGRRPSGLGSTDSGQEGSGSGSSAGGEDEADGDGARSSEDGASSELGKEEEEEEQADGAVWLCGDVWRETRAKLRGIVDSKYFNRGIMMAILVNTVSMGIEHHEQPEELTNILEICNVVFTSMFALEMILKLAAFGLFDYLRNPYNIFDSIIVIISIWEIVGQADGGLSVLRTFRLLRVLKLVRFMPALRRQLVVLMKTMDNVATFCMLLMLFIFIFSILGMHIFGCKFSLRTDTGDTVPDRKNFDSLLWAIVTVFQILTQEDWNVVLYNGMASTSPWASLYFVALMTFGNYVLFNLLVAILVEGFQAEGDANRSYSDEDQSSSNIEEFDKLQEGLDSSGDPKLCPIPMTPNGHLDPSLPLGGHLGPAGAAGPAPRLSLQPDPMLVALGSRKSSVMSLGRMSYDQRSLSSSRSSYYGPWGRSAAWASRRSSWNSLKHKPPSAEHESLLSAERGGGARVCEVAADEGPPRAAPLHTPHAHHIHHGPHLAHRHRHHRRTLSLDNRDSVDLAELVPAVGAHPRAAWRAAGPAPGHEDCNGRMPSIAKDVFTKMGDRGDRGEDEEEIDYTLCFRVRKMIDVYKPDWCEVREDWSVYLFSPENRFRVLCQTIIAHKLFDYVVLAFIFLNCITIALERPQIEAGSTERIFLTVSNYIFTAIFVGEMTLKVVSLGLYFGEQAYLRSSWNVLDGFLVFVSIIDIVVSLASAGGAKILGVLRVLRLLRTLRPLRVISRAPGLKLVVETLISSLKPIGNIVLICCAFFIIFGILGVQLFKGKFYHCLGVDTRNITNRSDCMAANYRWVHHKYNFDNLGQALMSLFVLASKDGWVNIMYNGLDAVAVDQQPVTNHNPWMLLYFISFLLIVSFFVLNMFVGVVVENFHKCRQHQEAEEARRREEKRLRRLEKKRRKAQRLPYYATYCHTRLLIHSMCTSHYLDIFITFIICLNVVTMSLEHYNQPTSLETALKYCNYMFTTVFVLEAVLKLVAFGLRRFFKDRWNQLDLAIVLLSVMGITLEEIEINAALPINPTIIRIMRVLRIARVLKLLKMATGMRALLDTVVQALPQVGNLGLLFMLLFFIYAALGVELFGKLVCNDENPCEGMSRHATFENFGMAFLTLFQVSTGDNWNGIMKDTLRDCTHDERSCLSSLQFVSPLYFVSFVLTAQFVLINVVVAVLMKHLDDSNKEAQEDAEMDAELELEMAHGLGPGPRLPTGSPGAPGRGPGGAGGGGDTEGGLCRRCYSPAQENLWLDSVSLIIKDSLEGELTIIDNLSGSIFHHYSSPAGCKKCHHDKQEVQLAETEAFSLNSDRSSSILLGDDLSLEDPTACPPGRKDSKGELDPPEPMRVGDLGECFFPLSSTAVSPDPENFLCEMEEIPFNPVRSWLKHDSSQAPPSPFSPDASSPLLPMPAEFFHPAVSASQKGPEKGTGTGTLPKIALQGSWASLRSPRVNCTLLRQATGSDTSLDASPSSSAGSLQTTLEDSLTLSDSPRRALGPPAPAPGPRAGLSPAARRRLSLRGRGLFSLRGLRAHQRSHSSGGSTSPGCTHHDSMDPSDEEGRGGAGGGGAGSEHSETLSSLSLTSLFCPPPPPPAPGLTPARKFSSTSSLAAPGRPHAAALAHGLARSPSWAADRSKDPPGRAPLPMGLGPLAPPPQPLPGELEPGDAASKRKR
T1 sequence (O95180 whole entry): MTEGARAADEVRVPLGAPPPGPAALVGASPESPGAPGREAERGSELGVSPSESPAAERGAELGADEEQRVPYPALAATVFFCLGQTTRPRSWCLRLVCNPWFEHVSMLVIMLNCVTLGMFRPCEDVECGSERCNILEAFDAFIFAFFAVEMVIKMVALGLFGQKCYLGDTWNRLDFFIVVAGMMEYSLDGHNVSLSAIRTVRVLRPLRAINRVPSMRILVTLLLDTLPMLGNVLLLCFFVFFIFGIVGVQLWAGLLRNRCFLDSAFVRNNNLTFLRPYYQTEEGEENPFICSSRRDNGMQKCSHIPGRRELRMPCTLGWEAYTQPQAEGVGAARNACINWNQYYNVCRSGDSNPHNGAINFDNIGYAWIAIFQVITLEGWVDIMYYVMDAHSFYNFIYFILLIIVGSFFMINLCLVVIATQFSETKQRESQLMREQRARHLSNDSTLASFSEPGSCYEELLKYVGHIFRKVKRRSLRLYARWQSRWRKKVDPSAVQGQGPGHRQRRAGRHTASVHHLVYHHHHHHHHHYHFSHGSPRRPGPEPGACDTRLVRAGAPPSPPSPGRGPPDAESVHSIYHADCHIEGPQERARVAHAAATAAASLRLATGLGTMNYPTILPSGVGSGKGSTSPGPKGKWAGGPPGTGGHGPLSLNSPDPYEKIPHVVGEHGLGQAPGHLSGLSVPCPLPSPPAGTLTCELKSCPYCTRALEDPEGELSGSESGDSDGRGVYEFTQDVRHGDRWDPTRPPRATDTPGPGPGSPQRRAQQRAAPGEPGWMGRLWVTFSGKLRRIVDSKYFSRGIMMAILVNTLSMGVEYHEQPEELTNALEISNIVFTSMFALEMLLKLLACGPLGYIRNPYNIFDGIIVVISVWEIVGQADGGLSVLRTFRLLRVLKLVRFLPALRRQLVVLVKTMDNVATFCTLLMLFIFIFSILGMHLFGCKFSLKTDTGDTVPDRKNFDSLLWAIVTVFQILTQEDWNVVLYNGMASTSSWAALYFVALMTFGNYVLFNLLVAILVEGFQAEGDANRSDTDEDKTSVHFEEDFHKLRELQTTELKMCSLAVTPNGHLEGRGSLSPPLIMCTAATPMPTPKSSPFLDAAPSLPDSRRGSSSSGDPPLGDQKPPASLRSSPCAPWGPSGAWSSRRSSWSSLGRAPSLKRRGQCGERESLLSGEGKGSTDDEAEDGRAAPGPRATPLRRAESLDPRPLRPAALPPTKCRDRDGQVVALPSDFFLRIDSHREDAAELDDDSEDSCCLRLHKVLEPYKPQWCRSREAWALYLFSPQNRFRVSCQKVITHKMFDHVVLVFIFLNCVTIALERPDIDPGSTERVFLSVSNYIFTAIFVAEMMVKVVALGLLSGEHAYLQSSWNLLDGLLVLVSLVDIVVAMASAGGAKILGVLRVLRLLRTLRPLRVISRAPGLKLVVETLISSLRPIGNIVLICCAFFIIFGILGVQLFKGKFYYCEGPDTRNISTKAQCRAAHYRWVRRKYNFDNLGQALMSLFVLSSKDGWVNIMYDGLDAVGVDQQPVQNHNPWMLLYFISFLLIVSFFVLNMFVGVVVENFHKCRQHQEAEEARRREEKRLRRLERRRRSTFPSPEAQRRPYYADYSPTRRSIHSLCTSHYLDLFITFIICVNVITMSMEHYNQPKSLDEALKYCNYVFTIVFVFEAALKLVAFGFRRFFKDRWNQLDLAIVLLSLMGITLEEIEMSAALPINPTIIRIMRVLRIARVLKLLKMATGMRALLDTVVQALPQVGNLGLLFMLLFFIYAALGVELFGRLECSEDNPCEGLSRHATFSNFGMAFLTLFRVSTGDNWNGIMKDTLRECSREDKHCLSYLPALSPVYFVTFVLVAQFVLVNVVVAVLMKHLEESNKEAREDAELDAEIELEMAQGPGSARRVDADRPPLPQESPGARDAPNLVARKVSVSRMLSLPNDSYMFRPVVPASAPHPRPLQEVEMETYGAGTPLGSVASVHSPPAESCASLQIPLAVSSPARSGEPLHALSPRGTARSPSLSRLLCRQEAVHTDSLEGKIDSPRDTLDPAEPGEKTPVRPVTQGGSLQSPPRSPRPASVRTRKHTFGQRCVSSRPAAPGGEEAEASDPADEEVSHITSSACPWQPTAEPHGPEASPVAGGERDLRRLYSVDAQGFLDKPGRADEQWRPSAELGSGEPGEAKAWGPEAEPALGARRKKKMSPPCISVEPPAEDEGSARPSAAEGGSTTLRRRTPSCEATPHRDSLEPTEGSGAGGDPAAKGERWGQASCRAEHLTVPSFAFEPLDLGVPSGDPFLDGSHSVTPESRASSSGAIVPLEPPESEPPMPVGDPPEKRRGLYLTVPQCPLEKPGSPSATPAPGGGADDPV

## C[C@@H](O)[C@@H]1NC(=O)[C@@H](NC(=O)[C@@H](N)Cc2c[nH]cn2)CSSC[C@@H](C(=O)N[C@@H](Cc2c[nH]c3ccccc23)C(N)=O)NC(=O)[C@H](Cc2c[nH]cn2)NC(=O)[C@H](CC(N)=O)NC(=O)[C@H](CO)NC(=O)[C@H](CC(N)=O)NC(=O)[C@@H]2CCCN2C1=O [Hf1a-NH2] (H-HCTPNSNHCW-NH2; disulfide 2-9)
[1]; 25 μM, holding −90 mV, 200 ms to −25 mV, n = 4, read-out: CaV3.2 current inhibition at 25 μM
  inhibition at 25 µM: 31.7%
[1]; partial inhibition, QPatch, holding −90 mV, 200 ms steps to −25 mV, 5 mM CaCl2, 0.1% BSA, pH 7.4, n = 4, means ± SEM, read-out: IC50 (CaV3.2 depolarized currents)
  IC50: 1180 nM
[2]; 25 μM, holding −90 mV, 200 ms to −10 mV, n = 4, read-out: CaV3.3 current inhibition at 25 μM
  inhibition at 25 µM: 44.6%
[2]; partial inhibition, QPatch, holding −90 mV, 200 ms steps to −10 mV, 5 mM CaCl2, 0.1% BSA, pH 7.4, n = 4, means ± SEM, read-out: IC50 (CaV3.3 depolarized currents)
  IC50: 490 nM
24 h post-injection, intraplantar
  Adverse effects on locomotor performance: no adverse effects on locomotor performance
mouse, in vivo
  Abnormal motor function during treadmill run: no abnormal motor functions like foot slips were noticed
  Distance covered on treadmill: showed no difference

## HCTPNSNHCW (disulfide 2-9 (inferred)) [Hf1a-OH]
[3]
  Effect on CaV3.1 current (in words): failed to show activity in any of the three subtypes; also recorded: did not show activity against any of the three T-type subtypes
[1]; QPatch, human CaV3.2 in HEK 293 cells
  Effect on CaV3.2 current (in words): failed to show activity in any of the three subtypes; also recorded: did not show activity against any of the three T-type subtypes
[2]; QPatch, human CaV3.3 in HEK 293 cells
  Effect on CaV3.3 current (in words): failed to show activity in any of the three subtypes; also recorded: did not show activity against any of the three T-type subtypes
[4]
  Effect on N-type CaV2.2: neither form showed activity; also recorded: neither form of ω-Buthitoxin-Hf1a affected N-type or L-type CaVs; also recorded: Neither Hf1a-NH2 nor Hf1a-OH showed activity against L- and N-type HVA CaVs
[5]
  Effect on L-type CaVs: neither form showed activity; also recorded: neither form of ω-Buthitoxin-Hf1a affected N-type or L-type CaVs; also recorded: Neither Hf1a-NH2 nor Hf1a-OH showed activity against L- and N-type HVA CaVs
[6]
  Insecticidal activity against adult sheep blowflies: no insecticidal activity; also recorded: neither Hf1a-OH nor Hf1a-NH2 showed observable insecticidal activity

B1: kurtoxin (protein, UniProt P58910 1-63, looked up)
Kurtoxin: KIDGYPVDYWNCKRICWYNNKYCNDLCKGLKADSGYCWGWTLSCYCQGLPDNARIKRSGRCRA
[7]
  Selective binding to T-type CaVs (CaV3.1 and CaV3.2): first and only scorpion toxin shown to selectively bind T-type CaVs (CaV3.1 and CaV3.2)
